In patent US5132401A (George Washington University, Office of Sponsored Research, priority 1989, dated 1992):

Test system: anterior pituitary cells
Test: PRL assay: in vitro prolactin release from normal anterior pituitary cells, RIA
Type: cell-based, Sprague-Dawley rats
Settings: maximum stimulatory concentration of TRH (100 nM); FIG. 12
Description: Inhibitory neurohormones and drugs were added during the final 20 minutes of the second rinse. […] After incubations, the medium is quickly removed and saved for radioimmunoassay (RIA).
PRL and GH were determined by standard RIA techniques (media diluted 1:30, 25-70 μl samples) using materials and protocols supplied by the NIDDK Rat Pituitary Hormone Distribution Program. Inter- and intra-assay variations for PRL and GH were less than 8% to 10%, respectively. All samples were assayed in duplicate, with results expressed in terms of NIDDK standards (rat PRL RP-2 and rat GH RP-1).

NC(=O)[C@@H]1CCCN1C(=O)[C@H](Cc1cnc[nH]1)NC(=O)[C@@H]1CCC(=O)N1 [TRH, thyrotropin releasing hormone]
increase in PRL release compared to the control value: 480%
